Assay [1] concerns clonazepam-sensitive benzodiazepine binding site. The following applies: cited from earlier work.
The target of the next assay is GABAa receptor. The assay is described as follows: GABAa receptor binding assay, displacement of 3H-RO15-1788 [3H-Flumazenil] in rat cortical tissue. The following applies: 0.5 nM 3H-RO15-1788 [3H-Flumazenil], 30 min at 4° C., pH 7.4. Here is the method:
The pharmaceutical utility of compounds of this invention are indicated by the following assay for GABAa receptor activity.
Assays are carried out as described in Thomas and Tallman (J. Bio. Chem. 156: 9838-9842, J. Neurosci. 3:433-440, 1983). Rat cortical tissue is dissected and homogenized in 25 volumes (w/v) of 0.05M Tris HCl buffer (pH 7.4 at 4° C.). The tissue homogenate is centrifuged in cold (4°) at 20,000×g for 20'. The supernatant is decanted and the pellet is rehomogenized in the same volume of buffer and again centrifuged at 20,000×g. The supernatant is decanted and the pellet is frozen at -20° C. overnight. The pellet is then thawed and rehomogenized in 25 volume (original wt/vol) of buffer and the procedure is carried out twice. The pellet is finally resuspended in 50 volumes (w/vol of 0.05M Tris HCl buffer (pH 7.4 at […]).
Incubations contain […] of radioligand 0.5 nM (^3 H-RO15-1788 [^3 H-Flumazenil] specific activity 80 Ci/mmol), drug or blocker and buffer to a total volume of […]. Incubations are carried for 30 min at 4° C. then are rapidly filtered through GFB filters to separate free and bound ligand. Filters are washed twice with fresh 0.05M Tris HCl buffer (pH 7.4 at 4° C.) and counted in a liquid scintillation counter. […] diazepam is added to some tubes to determine nonspecific binding. Data are collected in triplicate determinations, averaged and % inhibition of total specific binding is calculated. Total Specific Binding=Total-Nonspecific. In some cases, the amounts of unlabeled drugs is varied and total displacement curves of binding are carried out. Data are converted to a form for the calculation of IC50 and Hill Coefficient (nH).

`CN1CCc2cc3c(cc2[C@H]1[C@@H]1OC(=O)c2c1ccc1c2OCO1)OCO3` [(+) bicuculline]: the “block of enhancement of benzodiazepine binding by GABA agonists” value in assay [1] is listed as “blocked”.

On to `CN1CCc2cc3c(cc2[C@@H]1[C@H]1OC(=O)c2c1ccc1c2OCO1)OCO3` [(-) bicuculline], for which the “block of enhancement of benzodiazepine binding by GABA agonists” value in assay [1] is listed as “much less active”.

With `O=c1[nH]c2ccncc2c2nc(-c3ccccc3F)cn12` [Compound 1, 2-(2-Fluorophenyl)-imidazol[1,2-c]pyrido[3,4-e]pyrimidin-5(6H)-one], the half-inhibitory concentration (IC50) on GABAa receptor was 42 nM.

In the case of `O=c1[nH]c2ccncc2c2nc(-c3ccccc3)cn12` [Compound 2, 2-Phenyl-imidazo[1,2-c]pyrido[3,4-e]pyrimidin-5(6H)-one], at GABAa receptor, the IC50 stood at 169 nM.

The compound `O=c1[nH]c2cccnc2c2nc(-c3ccccc3)cn12` [Compound 15, 2-Phenylimidazo[1,2-c]pyrido[2,3-e]pyrimidin-5(6H)-one] gave a half-inhibitory concentration (IC50) on GABAa receptor of 132 nM. This IC50 and that of the compound before are within 1.5-fold of each other.
